For assay [1], the system named is VCAM-1, ICAM-1, IL-6, IL-1α and PPARs gene expression in the ascending aortic tissue. Put plainly: Expression of pro-inflammatory genes in ascending aortic tissue. As to conditions: vs vehicle. The format is in vivo, mice. How it is done:
(§1) Six-month old male apoE deficient mice (The Jackson Laboratory, Bar Harbor, Me.) fed a normal chow (Harlan Teklad diet #2018, Harlan Laboratories, Inc., Indianapolis, Ind.) were used in this study. Baseline blood pressure and body weight were measured before surgery. Animals were anesthetized by inhalation of 2% isoflurane. The left common carotid artery was carefully dissected via a midline neck incision under a dissecting microscope, and then ligated with a 6-0 silk ligature just proximal to its bifurcation. At the time of ligation, a minipump (model 2004, Durect Corp., Cupertino, Calif.) filled with Ang II (1.44 mg/Kg/day, Phoenix Pharmaceuticals, Burlingame, Calif.) was implanted subcutaneously. The animals were randomly divided into 2 groups; Vehicle: drinking water containing 5% hydroxypropyl-beta-cyclodextrin (HPBCD) or Compound 2 in drinking water containing 1.5 mg/mL Compound 2 in 5% HPBCD. Each experimental group included 11 animals. After 4 weeks of Ang II infusion, systolic blood pressure was measured in conscious mice using a tail-cuff system (Kent Scientific Corporation, Torrington, Conn.), and the animals were euthanized. Blood samples were collected via cardiac puncture for the measurement of a serum cholesterol profile (IDEXX Veterinary Services, West Sacramento, Calif.) and serum inflammatory panel (Murigenics, Hayward, Calif.) using a mouse cytokine/chemokine panel kit (Millipore, Billerica, Mass.), and tissues were removed for analysis (see below).
(§2) Using the animal model as reported in Martin-McNulty B, et al., 17 Beta-estradiol attenuates development of angiotensin II-induced aortic abdominal aneurysm in apolipoprotein E-deficient mice. Arterioscler Thromb Vasc Biol. 2003; 23(9):1627-1632 and Tham D M, et al., Angiotensin II is associated with activation of NF-kappaB-mediated genes and downregulation of PPARs. Physiol Genomics.

Assay [2] concerns angiotensin II infused apolipoprotein E deficient mice. Put plainly: Angiotensin II-induced abdominal aortic aneurysm formation in apoE deficient mice. The class given is in vivo. How it is done: (§3) Six-month old apolipoprotein E deficient mice were chronically infused with angiotensin II (1.44 mg/Kg/day) for 4 weeks to induce an abdominal aortic aneurysm (AAA) and accelerate atherosclerosis development. The mice were treated with Compound 2 (1.5 g/L in drinking water) or vehicle for 4 weeks. […] These effects were associated with a reduction of serum lipid, IL-6, murine IL-8 KC and IL-1α, and down-regulation of gene expressions of ICAM-1, VCAM-1 and IL-6 in the arterial wall. […] The attendant down-regulation of inflammatory mediators and lipid lowering effects may both contribute to the observed vascular protective effects.
as §1
Chronic infusion of Ang II induced aneurysm formation in the abdominal aorta in 7 of 11 (64%) control apoE deficient mice. Treatment with Compound 2 reduced the incidence of aneurysm formation to 18% (2 of 11). […] There was no type VI aneurysm found in this study.
There were foci of acute hemorrhage present in the intima. The intima was occasionally disrupted by plaques of Mac-3-positive foam cells on the luminal side of the internal elastic lamina. […] The thickness of the media was increased by extracellular matrix depositing between smooth muscle bundles and stained with trichrome as collagen. Elastin fibers in the media were discontinuous and irregularly oriented. The adventitia was markedly thickened by extracellular matrix that was predominately collagen. There was a modest increase in adventitial cellularity including fibroblasts and Mac-3-positive mononuclear cells. […] These vessels did have medial changes including collagen deposition and some increase in elastin fibers, but the internal elastic lamina generally remained intact and retained a distinctive media of smooth muscle.

Assay [3] shares this test system. Description: Ligation-induced vascular remodeling in the left carotid artery. The format is in vivo. How it is done: as §1, with “Blood samples were collected via cardiac puncture for the measurement of a serum cholesterol profile (IDEXX Veterinary Services, West Sacramento, Calif.) and serum inflammatory panel (Murigenics, Hayward, Calif.) using a mouse cytokine/chemokine panel kit (Millipore, Billerica, Mass.), and tissues were removed for analysis (see below).” left out
Ligation of the left carotid arteries for four weeks induced vascular remodeling, including neointima formation and adventitial proliferation, leading to expansive remodeling as measured by enlargement of vessel diameter. […]

Assay [4] relates to circulating IL-6, murine IL-8-KC, IL-1α, serum lipid. Put plainly: Serum inflammatory panel and serum lipid in Ang II infused apoE deficient mice. The class given is in vivo. How it is done:
as §1, §2

For assay [5], the system named is angiotensin II infused apolipoprotein E deficient mice. Description: Atherosclerotic lesion development in aortic arch and non-ligated right carotid artery of Ang II infused apoE deficient mice. The format is in vivo. As to conditions: vs vehicle. How it is done:
as §3
as §1, with “Blood samples were collected via cardiac puncture for the measurement of a serum cholesterol profile (IDEXX Veterinary Services, West Sacramento, Calif.) and serum inflammatory panel (Murigenics, Hayward, Calif.) using a mouse cytokine/chemokine panel kit (Millipore, Billerica, Mass.), and tissues were removed for analysis (see below).” left out

[6] abbreviates: ascending aortic tissue / arterial wall.

“Also recorded” adds a separate entry of the source.

As for `O=C(Nc1ccc(OC(F)(F)F)cc1)NC1CCN(C(=O)c2cccnc2)CC1` [Compound 2, 1-(1-nicotinoylpiperidin-4-yl)-3-(4-(trifluoromethoxy)phenyl)urea], in assay [1] (setting [6]), the ICAM-1 gene expression entry is listed as “down-regulation; also recorded: significantly reduced”, the IL-6 gene expression entry is on record as “down-regulation; also recorded: significantly reduced” and the VCAM-1 gene expression entry is given as “down-regulation; also recorded: significantly reduced”. Moreover, in assay [1] (ascending aortic tissue), the IL-1α gene expression result is listed as “did not significantly affect” and the PPARs gene expression result is reported as “did not significantly affect”. The “average outer diameter of the suprarenal aorta” value in assay [2] (1.5 mg/mL in drinking water, 4 weeks, vs vehicle group) is reported as “significantly smaller”. For the same molecule, the “AAA formation (rate), effect in words” value in assay [2] (1.5 g/L in drinking water, 4 weeks Ang II infusion, vs vehicle) is reported as “significantly reduced; also recorded: partially prevented”. Further, the “incidence of aneurysm formation” value in assay [2] (Compound 2 1.5 mg/mL in drinking water (5% HPBCD), 4 weeks Ang II 1.44 mg/Kg/day, 2 of 11 mice, vehicle 64%) amounted to 18%. For the same molecule, in assay [2] (mice that developed aneurysm, vehicle group majority type III), the “aneurysm severity measured by category score” value was “majority with type 0 and I”. The “adventitia thickness (histology)” value in assay [2] (vs vehicle group (markedly thickened), 4 weeks) is listed as “relatively thin”. Besides, in assay [2] (vs vehicle group, 4 weeks), the “intimal plaques in aorta (histological staining)” value was “fewer intimal plaques”; the “macrophage and iron accumulation in the adventitia” value is “less macrophage and no iron accumulation”; the “macrophage and iron accumulation in the intima (Mac-3, Prussian blue)” value was “no evidence of macrophage and iron accumulation”. Further, the “average diameter of the ligated carotid arteries” value in assay [3] (Compound 2 vs vehicle group, four weeks) is reported as “not significantly different”. The “ligation-induced vascular remodeling (neointima formation, adventitial proliferation, expansive remodeling)” value in assay [3] (left carotid artery ligated four weeks) is given as “not affected”. Further, the serum lipid result in assay [4] (4 weeks treatment) was “reduction”. In assay [4] (vs vehicle group), the “circulating protein level of IL-6” value is listed as “reduction; also recorded: significantly lower”, the “circulating protein level of murine IL-8-KC” value was “reduction; also recorded: significantly lower” and the “serum IL-1α” value is listed as “reduction; also recorded: reduced”. Also, the “atherosclerotic lesion area (overall)” value in assay [5] (1.5 g/L in drinking water, 4 weeks Ang II infusion) is listed as “significantly reduced”. For the same molecule, the “atherosclerotic lesion size/area in the aortic arch” value in assay [5] (4 weeks) is “significantly reduced”. Also, the “atherosclerotic lesion size/area in the carotid artery” value in assay [5] (non-ligated right carotid artery, 4 weeks) was “significantly reduced”.

For the origin of these results see patent US20100063583A1, “USE OF SOLUBLE EPOXIDE HYDROLASE INHIBITORS IN THE TREATMENT OF INFLAMMATORY VASCULAR DISEASES” (Arete Therapeutics, Inc., priority 2008, published 2010).
